Reference: patent US7635779B2, “Oxy substituted flavones as antihyperglycemic and antidyslipidemic agents” (Council of Scientific & Industrial Research, priority 2004, dated 2009)
Where two headings read alike, the source gives them in different places. Marks after values point to notes of the source that are not given here.

Experiments:
[1] = test system: streptozotocin-induced diabetic rats; experiment: Sucrose-challenged streptozotocin-induced diabetic rats (STZ-S); format: in vivo, rat; conditions: for % Fall in blood glucose levels, STZ-S 5 h / % Fall in blood glucose levels, STZ-S 24 h: 100 mg/kg oral
Method: Male albino rats of Sprague Dawley strain of body weight 160+20 g were selected for this study. Streptozotocin (Sigma, USA) was dissolved in 100 mM citrate buffer pH 4.5 and calculated amount of the fresh solution was injected to overnight fasted rats (45 mg/kg) intraperitoneally. Blood glucose level was checked 48 h later by glucostrips and animals showing blood glucose values between 144 to 270 mg/dl (8 to 15 mM) were included in the experiment and termed diabetic. The diabetic animals were divided into groups consisting of five to six animals in each group. Animals of experimental groups were administered suspension of the desired test samples orally (made in 1.0% gum acacia) at a dose of 100-mg/kg-body weight. Animals of control group were given an equal amount of 1.0% gum acacia. A sucrose load of 2.5-g/kg body weight was given after 30 minutes of compound administration. After 30 minutes of post sucrose load blood glucose level was again checked by glucostrips at 30, 60, 90, 120, 180, 240, 300 min and at 24 h, respectively. Animals not found diabetic after 24 hours post treatment of the test sample were not considered and omitted from the calculations and termed as non-responders. […] Food but not water was withheld from the cages during the experimentation. Comparing the AUC of experimental and control groups determined the percent antihyperglycemic activity. Statistical comparison between groups was made by Student's ‘t’ test.
As depicted in the FIGURE, a dose response curve of 34 was obtained by administering different doses of test compound to streptozotocin-induced diabetic rats (Table 6). […]

[2] = test system: triton WR-1339 induced hyperlipidemic rats; experiment: Triton model, antidyslipidemic activity; format: in vivo, rat; conditions: 100 mg/kg oral, plasma after 18 h; for inhibition in vivo at 100 mg/kg: Rattus norvegicus
Method: Male Charles foster rats weighing 200-225 g were divided into control, hyperlipidemic and hyperlipidemic plus drug treated groups containing six animals in each group. Hyperlipidemia was induced by administration of triton WR-1339 (200 mg/kg i.p.). All animals were maintained on a special pellet diet and water ad libitum. Compounds and standard drug were macerated with 0.2% aqueous gum acacia suspension. The suspension was fed orally at the dose of 100 mg/kg simultaneously with triton in drug treated group. The animals of control group received the same amount of gum acacia by similar route of administration. At the end of the experiment, after 18 h, blood was withdrawn from retro orbital plexus and plasma was used for the assay of total cholesterol, phospholipid and triglycerides.
Cholesterol was estimated using the kit provided by Roche Diagnostics. Cholesterol esters are enzymatically hydrolyzed by cholesterol esterase (CE) to cholesterol and free fatty acids. Free cholesterol, including that originally present, is then oxidized by cholesterol oxidase (CO) to cholest-4-en-3-one and hydrogen peroxide. The hydrogen peroxide combines with hydroxy benzoic acid (HBA) and 4-aminoantipyrine (4AAA) in the presence of peroxidase (POD) to form a chromophore (quinoneimine dye), which may be quantitated at 500-505 nm. The intensity of red colour formed is directly proportional to the concentration of total cholesterol in the specimen and measured spectrophotometrically (Searcy, C. L. Diagnostic Biochemistry, 1969, McGraw Hill, New York; Ellefson, R. D.; Caraway, W. T. Fundamentals of clinical chemistry, 1976, Ed Tietz N W, 506-515.)
Triglycerides were estimated using the kit provided by Roche Diagnostics. Lipoprotein lipase hydrolyses triglycerides to yield glycerol and fatty acids. Glycerol kinase converts glycerol to glycerol-3-phosphate, which is oxidized by glycerol phosphate oxidase to dihydroxy acetone phosphate and hydrogen peroxide. In the presence of peroxidase, hydrogen peroxide oxidatively couples with 4-aminoantipyrine and 4-chloro phenol to produce red quinonimine dye. The intensity of red colour formed is directly proportional to the concentration of triglycerides in the specimen and is measured by photometrically (Wahlefeld, A. W.; Bergmeyer, H. U. Ed. Methods of enzymatic analysis, 2nd English edition, New York, N.Y., Academic press inc, 1831-1840.).
Serum (0.2 mL) and perchloric acid (1.0 mL) was digested at 180° C. for 1-1.5 h till the solution became colorless. The liberated inorganic phosphate (Pi) was measured by the method of Fiske and Subbarow (Fiske, C. H.; Subbarow, V. J. Biol. Chem. 1925, 66, 375.). 1 mL of 2.5% ammonium molybdate (prepared in 5 N sulphuric acid) and 0.5 mL reducing agent (4-amino naphthol sulphonic acid, 0.2%), sodium metabisulphite (2.4% w/v in distilled water) was added to the above tubes and mixed well. The reaction mixture was […] with 2.5 mL of triple distilled water and kept at 60° C. in water bath for 20 min. For standard, an appropriate amount of potassium dihydrogen phosphate dissolved in triple distilled water containing 2-10 μg phosphorous (Pi) was run simultaneously with the experiment tubes. The optical density of the blue colour was recorded at 620 nm against reagent blank. The values of Pi were converted into phospholipid by multiplying with 25 (a constant calibrated from Pi value of lecithin).

[3] = test system: Swiss mice; experiment: Gross behaviour: motor responses (SMA, gait, posture); format: in vivo, mouse; set-up: key to SMA Score: scale 0-9; control group SMA = 4; conditions: for Effect on motor responses: 100 mg/kg; for SMA Score: 100 mg/kg p.o., control score 4
Method: 34 and 49 (100 mg/kg, p.o.) was administered in forenoon.
The gross behavioral parameters were observed as follows (based on Irwin protocol):
• i). Spontaneous motor activity [SMA]: Scored on a scale of 0-9 in which SMA in control group was assigned score 4. • ii). Posture/Position: Normal upright posture (+: present or −: absent) • iii). Gait: The mouse is allowed to move on the edge of the cage for 1 min and straight movements without fall or staggering is considered as normal. The gait is recorded as normal or abnormal; if abnormal description is provided. • iv). Ataxia: Any in-coordination in movements occurring in absence of involuntary movements. (+: present or −: absent) • v). Tremor: Involuntary movements (jerking of entire body or limbs) due to alternating contraction of muscles. (+: present or −: absent) • vi). Convulsions: Alternate contraction (flexion) and extension [clonic], or sustained extension [tonic] of limbs resulting into loss of upright posture (+: present or −: absent). • vii). Straub's tail: A sustained (>30 sec) raising of tail (making an angle >60° with the body) (+: present or −: absent) • viii). Catalepsy: A condition in which body or limbs remain passively in any position in which they are placed. It is tested by the placing forepaws on a metallic rod placed at height of 6 cm and if forepaws are not withdrawn within 10 sec catalepsy is considered to be positive (+: present or −: absent). • ix). Abnormal (Bizarre) behaviour: Stereotypy, head shaking, head searching, upright walking, and circling (+: present or −: absent). Results

[4] = phospholipid, read-out: % Fall in lipid levels (Triton model) PL
[5] = total cholesterol, read-out: % Fall in lipid levels (Triton model) TC
[6] = triglycerides, read-out: % Fall in lipid levels (Triton model) TG

Row | Effect on motor responses [3] | SMA Score ([3]; 0 min) | SMA Score ([3]; 30 min) | SMA Score ([3]; 60 min) | SMA Score ([3]; 90 min) | SMA Score ([3]; 120 min) | SMA Score ([3]; 150 min) | SMA Score ([3]; 180 min) | Compound | % Fall in blood glucose levels, STZ-S 5 h [1] | % Fall in blood glucose levels, STZ-S 24 h [1] | inhibition in vivo at 100 mg/kg [2, 4] [%] | inhibition in vivo at 100 mg/kg [2, 5] [%] | inhibition in vivo at 100 mg/kg [2, 6] [%] | further results
1 | did not show any significant effect | 4 | 4 | 4 | 4 | 4 | 4 | 4 | CC(C)(C)NCC(O)COc1ccc2c(=O)cc(-c3cc(OCc4ccccc4)cc(OCc4ccccc4)c3)oc2c1 (centres unmarked) [Compound 34, 7-(3-tert-Butylamino-2-hydroxy-propoxy)-3′,5′-dibenzyloxy-flavone] | 21.6** % | 28.7** % | 18 | 21 | 9 | % Fall in blood glucose levels 5 h ([1]; Dose 25, 5 h): 11.1%; % Fall in blood glucose levels 24 h ([1]; Dose 25, 24 h): 13.6%; % Fall in blood glucose levels 5 h ([1]; Dose 50, 5 h): 9.62%; % Fall in blood glucose levels 24 h ([1]; Dose 50, 24 h): 13.8%; % Fall in blood glucose levels 5 h ([1]; Dose 100, 5 h): 19.8%; % Fall in blood glucose levels 24 h ([1]; Dose 100, 24 h): 21.9%; % Fall in blood glucose levels 5 h ([1]; Dose 150, 5 h): 24.3%; % Fall in blood glucose levels 24 h ([1]; Dose 150, 24 h): 30.5%; % Fall in blood glucose levels 5 h ([1]; Dose 200, 5 h): 38.1%; % Fall in blood glucose levels 24 h ([1]; Dose 200, 24 h): 37.0%; % Fall in blood glucose levels 5 h ([1]; Dose 250, 5 h): 40.7%; % Fall in blood glucose levels 24 h ([1]; Dose 250, 24 h): 45.5%; ED50 ([1]; Rattus norvegicus, STZ-S model, dose response): 90 mg/kg
2 | did not show any significant effect | 4 | 4 | 4 | 4 | 4 | 4 | 4 | CC(C)NCC(O)COc1ccc2c(=O)cc(-c3cc(O)cc(O)c3)oc2c1 (centres unmarked) [Compound 49, 3′,5′-Dihydroxy-7-(2-hydroxy-3-iso-propylamino-propoxy)-flavone] | 26.9** % | 13.2* % | 28 | 32 | 32 | –
3 | – | – | – | – | – | – | – | – | COc1cc(-c2cc(=O)c3ccc(OCCCOc4ccc(C=C5SC(=O)NC5=O)cc4)cc3o2)cc(OC)c1OC [Compound 65, 7-{3-[4-(thiazolidin-2,4-dione-5-ylidinemethyl)-phenoxy]-propoxy}-3′,4′,5′-trimethoxy-flavone] | 16.1% | 11.0% | – | – | – | % Fall in lipid levels (Triton model) PL ([2]; phospholipid): 6%; % Fall in lipid levels (Triton model) TC ([2]; total cholesterol): 20%; % Fall in lipid levels (Triton model) TG ([2]; triglycerides): 3%
